No end group written: not given here.

The test system of data set [1] is AMPKα1. Description: AMPK phosphorylation in cAMP-treated Hepa1-6 cells. The format is cell-based. The conditions noted are these: Hepa1-6 cells with cAMP (0.2 mM).
The target in data set [2] is AMPKα1 (AMP-activated protein kinase catalytic subunit alpha 1), FLAG-tagged, wild type (UniProt Q13131).
Target sequence in this assay (Q13131 whole entry, looked up, tested part not stated): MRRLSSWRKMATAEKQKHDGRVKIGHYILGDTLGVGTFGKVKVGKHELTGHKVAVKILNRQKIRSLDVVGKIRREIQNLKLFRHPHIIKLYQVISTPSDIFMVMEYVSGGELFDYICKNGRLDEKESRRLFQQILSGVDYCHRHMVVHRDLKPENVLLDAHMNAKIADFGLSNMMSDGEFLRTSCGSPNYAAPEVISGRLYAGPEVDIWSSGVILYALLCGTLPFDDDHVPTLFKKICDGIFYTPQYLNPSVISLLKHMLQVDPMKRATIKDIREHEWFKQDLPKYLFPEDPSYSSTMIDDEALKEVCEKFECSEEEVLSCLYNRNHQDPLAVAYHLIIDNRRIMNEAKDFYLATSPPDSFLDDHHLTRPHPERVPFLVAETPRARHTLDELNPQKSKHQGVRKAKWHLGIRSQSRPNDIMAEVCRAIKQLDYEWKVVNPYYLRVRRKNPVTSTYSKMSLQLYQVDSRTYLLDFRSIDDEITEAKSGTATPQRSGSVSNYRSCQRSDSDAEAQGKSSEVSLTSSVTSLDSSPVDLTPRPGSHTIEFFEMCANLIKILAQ
The test system of data set [3] is T1, peptide a1m (TPQRSGSISNYRSCQR).
T1 sequence: TPQRSGSISNYRSCQR

The target of data set [4] is AMPKα1 (AMP-activated protein kinase catalytic subunit alpha 1), FLAG-tagged, wild type (UniProt Q13131). Description: cell-based or functional assay.
Target sequence in this assay (Q13131 whole entry): as the sequence (Q13131 whole entry, looked up, tested part not stated) above
Data set [5] concerns the target AMPKα2 phosphorylated at S491 (UniProt P54646).
Data set [6] addresses AMPKα1 phosphorylated at S496 (UniProt Q13131).
For data set [7], the target named is AMPKα2 (AMP-activated protein kinase catalytic subunit alpha 2) (UniProt P54646).
Sequence of AMPKα2 (AMP-activated protein kinase catalytic subunit alpha 2) (P54646 whole entry, looked up, tested part not stated): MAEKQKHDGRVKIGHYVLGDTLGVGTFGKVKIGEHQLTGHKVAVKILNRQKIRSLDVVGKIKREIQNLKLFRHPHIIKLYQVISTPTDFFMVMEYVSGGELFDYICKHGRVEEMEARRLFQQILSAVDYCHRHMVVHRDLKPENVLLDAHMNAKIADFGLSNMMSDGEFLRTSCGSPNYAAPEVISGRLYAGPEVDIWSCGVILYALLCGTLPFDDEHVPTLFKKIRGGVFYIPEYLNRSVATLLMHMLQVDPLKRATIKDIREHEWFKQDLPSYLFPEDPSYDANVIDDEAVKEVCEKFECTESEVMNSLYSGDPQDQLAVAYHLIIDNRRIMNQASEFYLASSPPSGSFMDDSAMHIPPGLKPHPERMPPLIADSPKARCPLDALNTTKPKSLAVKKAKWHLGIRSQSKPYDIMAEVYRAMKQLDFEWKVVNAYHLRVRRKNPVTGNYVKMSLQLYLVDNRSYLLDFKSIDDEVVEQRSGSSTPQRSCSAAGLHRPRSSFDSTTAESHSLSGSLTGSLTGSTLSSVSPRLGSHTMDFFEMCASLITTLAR
The test system of data set [8] is AMPKα1. Description: In vitro phosphorylation assay of AMPKα1 at S496 by PKA or AKT. Type of data set: biochemical. The conditions noted are these: in vitro assays. Here is the method:
(§1) In vitro phosphorylation assays. Purified AMPKα1 protein was incubated with 1 μg of PKA catalytic subunit (Millipore) or 0.54 ug of AKT1 (abcam), 1× kinase buffer (Cell signaling) and 0.2 mM ATP at room temperature for the indicated time. To test the phosphorylation of PKA-mediated AMPK phosphorylation at S496/491 on a subunit phosphorylation at T172, AMPKα subunits were phosphorylated at S496/491 by PKA at 37° C. for 1 h, followed by the addition of 25 ng LKB1-STRAD-MO25 (Millipore), then incubated at room temperature for 30 min.

In a further data set the test system is AMPKα2. Description: In vitro phosphorylation assay of AMPKα2 at S491 by PKA. The format is biochemical. The procedure: as §1
A short description of data set [9]: Viable MCF-7 breast cancer cells. Type of data set: cell-based. The conditions noted are these: 500 μM; read-out: reduction of viable MCF-7 cancer cells.
Data set [10] relates to human colon cancer Caco2 cells. Nature of the data set: Growth of colon cancer Caco2 cells. The format is cell-based. The conditions noted are these: FIG. 25b.
For a further data set, the system named is primary hepatocytes. Particulars: 10 μM, 16 h, versus control peptide TAT. The procedure: Primary hepatocytes prepared from elderly mice (78 weeks of age) were treated with 10 μM of control peptide TAT or Pa496m for 16 h.
The test system of another data set is HFD-fed mice. Nature of the data set: Intraperitoneal treatment of HFD-fed mice. The format is in vivo, mouse. Particulars: intraperitoneal 10 nMole/g/day for 5 days, then 15 nMole/g/day for another 5 days.
The test system of data set [11] is human primary hepatocytes.

Sequence of AMPKβ1, FLAG-tagged (Q9R078 2-270): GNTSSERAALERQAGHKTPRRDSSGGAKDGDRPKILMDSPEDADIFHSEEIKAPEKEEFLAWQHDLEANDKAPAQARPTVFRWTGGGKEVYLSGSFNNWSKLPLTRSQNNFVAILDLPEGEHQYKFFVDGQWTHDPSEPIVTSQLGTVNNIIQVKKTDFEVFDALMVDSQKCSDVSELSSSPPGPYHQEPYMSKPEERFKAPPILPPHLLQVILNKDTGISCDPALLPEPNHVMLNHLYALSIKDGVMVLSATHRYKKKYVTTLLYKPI
Sequence of AMPKα2 phosphorylated at S491 (P54646 whole entry, looked up): as the sequence (P54646 whole entry, looked up, tested part not stated) above
Sequence of AMPKγ1, FLAG-tagged (O54950 whole entry): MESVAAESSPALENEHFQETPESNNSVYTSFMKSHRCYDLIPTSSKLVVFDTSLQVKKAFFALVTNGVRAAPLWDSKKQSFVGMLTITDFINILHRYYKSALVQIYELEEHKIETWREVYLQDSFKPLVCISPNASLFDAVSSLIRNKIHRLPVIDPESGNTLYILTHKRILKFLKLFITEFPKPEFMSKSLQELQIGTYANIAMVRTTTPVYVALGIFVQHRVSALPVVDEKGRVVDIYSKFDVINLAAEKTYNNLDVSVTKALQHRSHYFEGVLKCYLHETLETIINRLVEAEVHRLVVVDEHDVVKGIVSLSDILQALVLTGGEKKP
Sequence of AMPKα1 phosphorylated at S496 (Q13131 whole entry, looked up): as the sequence (Q13131 whole entry, looked up, tested part not stated) above

For `O=S(=O)(NCCNC/C=C/c1ccc(Br)cc1)c1cccc2cnccc12` [Peptide H89], the “phosphorylation of AMPKαT172 and MFF” value with AMPKα1 [1] is “reversed the negative effect of cAMP”.
Turning to AKT1 (abcam), the “in vitro phosphorylation of AMPKα1 at S496” value in [2] is “PKA- or AKT-mediated phosphorylation of AMPKα1 at S496 in in vitro assays”. In data set [3], the “in vitro phosphorylation of AMPKα1 at S496 by AKT” value is recorded as “this peptide could effectively antagonize PKA- or AKT-mediated phosphorylation of AMPKα1 at S496 in in vitro assays”.
In the case of AMPKβ1, FLAG-tagged, the AMPK enzymatic activity (% of enzymatic activity lost) in data set [4] was 80.
As for AMPKγ1, FLAG-tagged, the AMPK enzymatic activity (% of enzymatic activity lost) in [4] was 80.
As for LKB1-STRAD-MO25 (Millipore), the “in vitro phosphorylation of AMPKα at T172” value in data set [5] and in data set [6] was “the phosphorylation at these sites decreased the phosphorylation of AMPKα at T172 by upstream kinase LKB1” throughout.
Regarding PKA catalytic subunit (Millipore), in data set [2], the “in vitro phosphorylation of AMPKα1 at S496” value is recorded as “PKA can directly phosphorylate AMPKα1 at S496”. Besides, the “in vitro phosphorylation of AMPKα2 at S491” value in data set [7] is “PKA can directly phosphorylate AMPKα1 at S496 (FIGS. 3a, b) and AMPKα2 at S491 (FIG. 3c)”. Moreover, in data set [3], the “in vitro phosphorylation of AMPKα1 at S496 by PKA” value is “this peptide could effectively antagonize PKA- or AKT-mediated phosphorylation of AMPKα1 at S496 in in vitro assays” and the “in vitro phosphorylation of AMPKα2 at S491 by PKA” value is “this targeting-peptide a1m could antagonize the phosphorylation of AMPKα2 at S491 by PKA as well”.
For the compound “TPQRSGSISNYRSCQR [a1m, corresponds to mouse AMPKα1 from 490-505 a.a]”, the “PKA- or AKT-mediated phosphorylation of AMPKα1 at S496” value in the data set with AMPKα1 [8] is recorded as “effectively antagonize”. For the same compound, the “phosphorylation of AMPKα2 at S491 by PKA” value in the data set with AMPKα2 is reported as “could antagonize”.
With YGRKKRRQRRRTPQRSCSAAGLHR [Pa2-491], the cytotoxicity in data set [9] was above 90%. Further, the “growth of colon carcinoma Caco2 cells” value in [10] is given as “could inhibit”.
With YGRKKRRQRRRTPQRSGSISNYRSCQR [Pa496m], the cytotoxicity in [9] is above 90%. Also, the “fat content in hepatocytes” value in the data set with primary hepatocytes is listed as “significantly decreased”.
As for YGRKKRRQRRRTPQRSGSVSNYRSCQR [Pa496h], the cytotoxicity in data set [9] is above 90%. The “growth of colon carcinoma Caco2 cells” value in [10] is on record as “could inhibit”. In the data set on HFD-fed mice, the “injury to the liver” value is given as “without causing injury to the liver”. In data set [11], the “decrease of hepatocytes' viability” value was determined as 19.8%. Besides, the “viability of human primary hepatocytes” value in [11] (100 μM) was “did not significantly affected”.
